± gives the expanded uncertainty stated by the source.
Experiment: xn = mol fraction of the nth substance listed
Details: 298.15 K, Liquid

CCCCCCCCC [nonane] + C1CCCCC1
mass density [kg/m3]
Details	x2 = 0	x2 = 0.09303	x2 = 0.2009	x2 = 0.3051	x2 = 0.417	x2 = 0.512	x2 = 0.5996	x2 = 0.7052	x2 = 0.7993	x2 = 0.9039
18340 kPa	–	–	–	–	–	–	–	760.7 ± 1.2	768 ± 1.2	777.3 ± 1.1
20370 kPa	728.6 ± 1.5	731.6 ± 1.5	735.7 ± 1.5	740 ± 1.4	745.1 ± 1.4	749.8 ± 1.4	755.2 ± 1.3	762.1 ± 1.3	769.4 ± 1.2	778.8 ± 1.2
22390 kPa	730 ± 1.6	732.9 ± 1.6	737.1 ± 1.5	741.4 ± 1.5	746.5 ± 1.5	751.3 ± 1.4	756.6 ± 1.4	763.5 ± 1.3	770.8 ± 1.3	780.2 ± 1.3
24420 kPa	731.3 ± 1.7	734.2 ± 1.6	738.4 ± 1.6	742.7 ± 1.6	747.9 ± 1.5	752.6 ± 1.5	758 ± 1.5	764.9 ± 1.4	772.2 ± 1.4	781.6 ± 1.3
26450 kPa	732.6 ± 1.7	735.6 ± 1.7	739.8 ± 1.7	744.1 ± 1.6	749.2 ± 1.6	753.9 ± 1.6	759.3 ± 1.5	766.3 ± 1.5	773.5 ± 1.4	783 ± 1.4
28470 kPa	733.9 ± 1.8	736.9 ± 1.8	741.1 ± 1.8	745.3 ± 1.7	750.5 ± 1.7	755.2 ± 1.6	760.6 ± 1.6	767.6 ± 1.5	774.9 ± 1.5	784.3 ± 1.4
29490 kPa	734.5 ± 1.9	737.5 ± 1.8	741.7 ± 1.8	746 ± 1.8	751.1 ± 1.7	755.8 ± 1.7	761.3 ± 1.6	768.2 ± 1.6	775.5 ± 1.5	785 ± 1.5
30500 kPa	735.1 ± 1.9	738.1 ± 1.9	742.3 ± 1.8	746.6 ± 1.8	751.8 ± 1.7	756.5 ± 1.7	761.9 ± 1.7	768.9 ± 1.6	776.2 ± 1.6	785.7 ± 1.5
32530 kPa	736.4 ± 2	739.4 ± 1.9	743.6 ± 1.9	747.9 ± 1.9	753 ± 1.8	757.7 ± 1.8	763.2 ± 1.7	770.2 ± 1.7	777.5 ± 1.6	787 ± 1.5
34550 kPa	737.6 ± 2	740.7 ± 2	744.8 ± 2	749.1 ± 1.9	754.3 ± 1.9	759 ± 1.8	764.5 ± 1.8	771.5 ± 1.7	778.7 ± 1.7	788.2 ± 1.6
36580 kPa	738.8 ± 2.1	741.8 ± 2.1	746 ± 2	750.3 ± 2	755.5 ± 1.9	760.2 ± 1.9	765.7 ± 1.9	772.7 ± 1.8	780 ± 1.7	789.5 ± 1.7
38600 kPa	740 ± 2.2	743 ± 2.2	747.2 ± 2.1	751.5 ± 2.1	756.7 ± 2	761.4 ± 2	766.9 ± 1.9	773.9 ± 1.9	781.4 ± 1.8	790.7 ± 1.7
39620 kPa	740.6 ± 2.2	743.6 ± 2.2	747.8 ± 2.1	752.1 ± 2.1	757.3 ± 2.1	762 ± 2	767.5 ± 2	774.5 ± 1.9	–	791.3 ± 1.7

Source: the NIST ThermoML archive (doi:10.1016/j.jct.2007.04.005)
